Laboratory results taken from patent US6162799A, “Pesticidal compounds” (BTG International Limited, priority 1995, dated 2000).
In brackets after ≈: the same amount, converted by molar mass.

How the values were obtained:
Rhizoctonia solani = type: cell-based; details: R. solani
acarids and fungi = details: cited from earlier work
Tetranychus = details: Tabelle A of EP 0300218 A1; cited from earlier work
Myzus persicae [1] = experiment: Aphicidal activity, aphid-dip; type: in vivo
Description: (§1) Activity against resistant (R) and susceptible (S) strains of aphid (Myzus persicae) and Aphis gossypiae was assessed using the following two methods.
(§2) Entrapment rings of fluon were painted halfway up the inside of 4 cm lengths of glass tubing (1.5 cm diameter), and squares of insect-proof gauze were attached to one end of each tube by elastic bands. Fifteen apterous adults were then gently transferred into the tubes using a sable-hair brush, and the tube sealed with a second gauze square.
(§3) Tubes containing aphids were dipped into insecticide solutions for 10 seconds, dried on blotting paper, and then inverted and tapped to cause treated aphids to fall to the unimmersed end of each tube. Handling mortality (usually zero or very slight) was scored after 1 hour, when aphids were transferred onto chinese cabbage leaf-discs (35 mm diameter) on an agar bed (25 mm in depth) in disposible plastic containers (30 mm high) and confined by applying a ring of fluon to the exposed lip of the container. Containers were stored upright, without lids, in a constant environment facility maintained at 25° C. under continuous room lighting. Mortality was assessed at 24, 48 and 72 hours. Two replicates of 15 aphids each were used at each dose rate and 5 or 6 dose rates were used per compound under test.
(§4) The test was carried out using a susceptible strain of aphids (US1L) collected in the field in East Anglia, UK and an extremely resistant strain of aphids (794Jz) (R^3 esterase, sensitive ACHE) collected from glasshouses in the UK.
(§5) The values given are % mortality corrected for control data. The control comprised the test solution without active ingredient.

Bemisia tabaci = experiment: Film/vial test on whitefly (BT), susceptible strain SUD-S; type: in vivo; details: 48 h, read-out: BT (SUD-S) (LC50)
Description: (§6) Pesticidal activity was assessed against houseflies, mustard beetles, mites and whitefly using the following methods.
Whitefly (BT) (Bemisia tabaci)
Acetone solutions (0.100 ml) of the test compounds were placed in 10 ml glass vials and evaporated with rotation to deposit a film of the compound. Thirty adult whiteflies were placed inside the vial, then after 60 minutes, the treated insects were transferred onto untreated cotton leaf discs which were kept moist on a bed of agar gel. The temperature was maintained at 25° C. and mortality assessed after 48 hours. Three replicates were used at each of 5 to 7 dose levels per compound. LC50 values were calculated by using a computer software package ("Polo-PC" available from LeOra Software, Berkeley, Calif.). (See M. R. Cahill and B. Hackett in Proceedings Brighton Crop Protection Conference, 1992). The test was carried out using a susceptible strain of whitefly (SUD-S) which was collected in Sudan in 1978 from cotton.
(§7) The values given are LD50 (μg/insect) or LC50 (ppm solution of test compound) unless otherwise specified.

Phaedon cochleariae Fab = experiment: Topical test on mustard beetles (PC); type: in vivo; details: for PC (LD50): mustard beetles, topical, 48 h
Description: as §6
Mustard beetles (PC) (Phaedon cochleariae Fab)
A one microliter drop of an acetone solution of the test compound was applied ventrally to adult mustard beetles using a micro drop applicator. The treated insects were maintained for 48 hours after which time kill was assessed. Two replicates each of 20 to 25 mustard beetles were used at each dose level and 5 dose levels were treated comparably. LD50 values were calculated as for houseflies.
as §7

Myzus persicae [2] = experiment: Aphicidal activity, topical application; type: in vivo; details: susceptible strain USIL, 100 ppm, 72 h, read-out: Topical aphid results, % kill M.P. USIL
Description: as §1
(§8) Batches of 10-15 apterous adults were removed from stock cultures and placed on leaf discs (35 mm in diameter) cut from chinese cabbage and held on an agar bed (25 mm deep) in disposable plastic containers (30 mm high). Using a Burkhard micro-applicator aphids were dosed individually with a 0.25 μm droplet of chemical diluted to the required concentration in acetone. control insects were dosed with acetone only. Mortality and other effects were scored at 24 hour intervals up to and including 72 hour post-treatment, the end-point to which the results relate.
as §4, §5

Musca domestica = experiment: Topical test on houseflies (MD); type: in vivo; details: for MD (LD50): houseflies, topical on thorax, kill assessed 24 and 48 h
Description: as §6
Houseflies (MD) (Musca domestica)
Female flies were treated on the thorax with a one microliter drop of test compound dissolved in acetone. Two replicates of 15 flies were used at each dose rate and 6 dose rates were used per compound under test. After treatment, the flies were maintained at a temperature of 20°±1° C. and kill was assessed 24 and 48 hours after treatment. LD50 values were calculated in micrograms of test compound per fly (see Sawicki et al., Bulletin of the World Health Organisation, 35, 893 (1966) and Sawicki et al., Entomologia and Exp. Appli 10, 253, (1967).
as §7

Aphis gossypiae = experiment: Aphicidal activity, aphid-dip; type: in vivo; details: strain 81-171B, read-out: Aphid-dip result, % kill A.G. 81-171B
Description: as §1, §2, §3, §5

Tetranychus urticae = experiment: Immersion test on mites (TU), susceptible strain GSS; type: in vivo; details: 72 h, read-out: TU (GSS) (LC50)
Description: as §6
Mites (TU) (Tetranychus urticae)
25 adult female mites were immersed in 35 μl of a solution of the test compound in a 1:4 acetone-water mixture for 30 seconds. The treated insects were maintained at 21°±2° C. and kill was assessed 72 hours after treatment. […] Three replicates of 25 mites each were used at each dose rate and 5 or 6 dose rates were used per compound under test. LC50 values were calculated in ppm of the solution of the test compound per insect. The test was carried out using a susceptible strain of mites (GSS) supplied by Schering, AG, Berlin.
as §7

Aspergillus niger = type: cell-based; details: A. niger
[3] = test system: Pyricularia oryzae (=Magnaporthe grisea); type: cell-based; details: P. oryzae, 100 mg 1^-1, 7 days
Myzus = experiment: Aphicidal activity of comparative compounds (topical or dip not stated); type: in vivo; details: prior art t-butyl compound; in the tests set out above; concentration not given
Description: as §1
as §8, with “relate. […]” for “relate.”
as §3, with “Containers were stored upright, without lids, in a constant environment facility maintained at 25° C. under continuous room lighting.” left out, “Two replicates of 15 aphids each were used at each dose rate and 5 or 6 dose rates were used per compound under test.” left out

[4] = resistant strain 794JZ, read-out: Aphid-dip result, % kill M.P. 794JZ
[5] = susceptible strain USIL, read-out: Aphid-dip result, % kill M.P. USIL
[6] = 100 mg 1^-1, 4 days at 20-25° C.
[7] = prior art t-butyl compound, tested by the present inventors

Row | Compound | mortality at 100 ppm (Myzus persicae [1]; [4]) | mortality at 100 ppm (Myzus persicae [1]; [5]) | LC50 (Bemisia tabaci) | PC (LD50) (Phaedon cochleariae Fab) | mortality at 100 ppm (Myzus persicae [2]) | MD (LD50) (Musca domestica) | mortality at 100 ppm (Aphis gossypiae) | LC50 (Tetranychus urticae) | further results
1 | COC(=O)Nc1nc2ccccc2[nH]1 [Carbendazim, carbendazim] |  |  |  |  |  |  |  |  | Activity at 1 mg 1^-1 (% inhibition of growth in colony diameter) (Rhizoctonia solani; 1 mg 1^-1): 3.3%; Activity at 5 mg 1^-1 (% inhibition of growth in colony diameter) (Rhizoctonia solani; 5 mg 1^-1): 82.4%
2 | C[Si](C)(C)C1CCC(C2=C(O)C(=O)c3ccccc3C2=O)CC1 (stereo not shown) [compound of Example 5 (DE 3801743 A1)] |  |  |  |  |  |  |  |  | pesticidal activity relative to other disclosed compounds (acarids and fungi; DE 3801743 A1): not the most pesticidally active compound; acaricidal and fungicidal activity (acarids and fungi; data in DE 3801743 A1): some acaricidal and fungicidal activity; activity against Tetranychus relative to tertiary butyl compound (Tetranychus): less than the corresponding tertiary butyl compound
3 | C[Si](C)(C)CCCCCCCCCC1=C(O)C(=O)c2ccccc2C1=O [Example 12, 2-hydroxy-3-(9-trimethylsilylnonyl)-1,4-naphthoquinone] | 61% | 100% | 8.6 µg/mL (≈ 23.1 µM) | 0.13 μg/insect | 89% | 2.8 μg/insect | 93% | 0.9 µg/mL (≈ 2.42 µM) | 
4 | CCCN(CCOc1c(Cl)cc(Cl)cc1Cl)C(=O)n1ccnc1 [Prochloraz, prochloraz, reference compound] |  |  |  |  |  |  |  |  | Activity at 1 mg 1^-1 (% inhibition of growth in colony diameter) (Aspergillus niger; 1 mg 1^-1): 97.8%
5 | C[Si](C)(C)CCC1=C(O)C(=O)c2ccccc2C1=O [Example 2, 2-hydroxy-3-(2'-trimethylsilylethyl)-1,4-naphthoquinone] | 54% | 77% | 2.6 µg/mL (≈ 9.48 µM) | 0.45 μg/insect | 45% | 0.69 μg/insect | 63% | 38 µg/mL (≈ 138 µM) | Activity at 100 mg 1^-1 (% inhibition of growth in colony diameter) (Rhizoctonia solani; [6]): 35%; Activity at 100 mg 1^-1 (% inhibition of growth in colony diameter) (Aspergillus niger; [6]): 18%; Activity at 100 mg 1^-1 (% inhibition of growth in colony diameter) [3]: 67%
6 | CC(C)(C)C1CCC(C2=C(O)C(=O)c3ccccc3C2=O)CC1 (stereo not shown) [t-butyl compoud, reference compound] |  |  |  |  |  |  |  |  | kill against Myzus (Myzus): 19%; LD50 against Phaedon (Phaedon cochleariae Fab; [7]): 0.53 μg/insect; LD50 against Musca (Musca domestica; [7]): 16 μg/insect
